Legend:
[1] = tested on: Huh-7, CRFK, or CCL1 cells
SARS-CoV-2 3CLpro = SARS-CoV-2 3CLpro (Severe acute respiratory syndrome coronavirus 2 (2019-nCoV) (SARS-CoV-2), UniProt P0DTD1); experiment: biochemical; format: biochemical; details: for IC50: read-out: IC50
MERS-CoV 3CLpro = MERS-CoV 3CLpro (Middle East respiratory syndrome-related coronavirus (isolate United Kingdom/H123990006/2012) (MERS-CoV) (Betacoronavirus England 1), UniProt K9N7C7); format: biochemical
SARS-CoV-2 replicon = experiment: microbe, parasite or virus in culture; format: cell-based; details: Severe acute respiratory syndrome coronavirus 2, HEK-293T, 30 h, read-out: EC50, SARS-CoV-2 replicon assay
CRFK cells = details: cat

MERS-CoV 3CLpro, sequence (K9N7C7 3248-3553 limits assumed): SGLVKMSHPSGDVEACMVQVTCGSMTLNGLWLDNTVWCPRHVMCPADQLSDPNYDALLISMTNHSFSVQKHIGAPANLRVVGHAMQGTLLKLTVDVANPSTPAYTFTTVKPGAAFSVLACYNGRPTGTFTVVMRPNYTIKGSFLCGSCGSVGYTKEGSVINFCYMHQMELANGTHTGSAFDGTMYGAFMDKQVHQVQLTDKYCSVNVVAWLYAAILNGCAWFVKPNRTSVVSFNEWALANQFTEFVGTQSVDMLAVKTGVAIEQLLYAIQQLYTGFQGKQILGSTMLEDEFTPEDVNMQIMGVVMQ

Structure (SMILES) | CC50 [1] [nM] | IC50 (SARS-CoV-2 3CLpro) [nM] | IC50 (MERS-CoV 3CLpro) [nM] | decrease in potency compared to 2k/3k (SARS-CoV-2 3CLpro) [fold] | EC50 (SARS-CoV-2 replicon) [nM] | CC50 (CRFK cells) [nM]
[2H]C([2H])(OC(=O)N[C@@H](CC(C)C)C(=O)N[C@H](C=O)C[C@@H]1CCNC1=O)[C@@H]1C[C@@H]2C=CC[C@@H](C2)C1 [Compound 2d, ((1S,3S,5R)-Bicyclo[3.3.1]non-6-en-3-yl)methyl-d2 ((S)-4-methyl-1-oxo-1-(((S)-1-oxo-3-((S)-2-oxopyrrolidin-3-yl)propan-2-yl)amino)pentan-2-yl)carbamate] | > 100000 | 280 ± 80 | – | – | – | –
CC(C)C[C@H](NC(=O)OCC1CC2C=CC1C2)C(=O)N[C@H](C=O)C[C@@H]1CCNC1=O (stereo partly drawn) [Compound 2e, Bicyclo[2.2.1]hept-5-en-2-ylmethyl ((S)-4-methyl-1-oxo-1-(((S)-1-oxo-3-((S)-2-oxopyrrolidin-3-yl)propan-2-yl)amino)pentan-2-yl)carbamate] | > 100000 | 260 ± 50 | – | – | – | –
CC(C)C[C@H](NC(=O)OCC1CC2CCC1C2)C(=O)N[C@H](C=O)C[C@@H]1CCNC1=O (stereo partly drawn) [Compound 2f, Bicyclo[2.2.1]heptan-2-ylmethyl ((S)-4-methyl-1-oxo-1-(((S)-1-oxo-3-((S)-2-oxopyrrolidin-3-yl)propan-2-yl)amino)pentan-2-yl)carbamate] | > 100000 | 140 ± 20 | 63 ± 3 | – | – | –
CC(C)C[C@H](NC(=O)O[C@@H]1C[C@H]2CC[C@@H](C1)N2C(=O)OC(C)(C)C)C(=O)N[C@H](C=O)C[C@@H]1CCNC1=O [Compound 2g, tert-Butyl (1R,3s,5S)-3-((((S)-4-methyl-1-oxo-1-(((S)-1-oxo-3-((S)-2-oxopyrrolidin-3-yl)propan-2-yl)amino)pentan-2-yl)carbamoyl)oxy)-8-azabicyclo[3.2.1]octane-8-carboxylate] | > 100000 | 1900 ± 140 | – | – | – | –
CC(C)C[C@H](NC(=O)O[C@@H]1C[C@H]2CC[C@@H](C1)N2C(=O)OCc1ccccc1)C(=O)N[C@H](C=O)C[C@@H]1CCNC1=O [Compound 2h, Benzyl (1R,3s,5S)-3-((((S)-4-methyl-1-oxo-1-(((S)-1-oxo-3-((S)-2-oxopyrrolidin-3-yl)propan-2-yl)amino)pentan-2-yl)carbamoyl)oxy)-8-azabicyclo[3.2.1]octane-8-carboxylate] | > 100000 | 390 ± 20 | – | – | – | –
[2H]C([2H])(OC(=O)N[C@@H](CC(C)C)C(=O)N[C@H](C=O)C[C@@H]1CCNC1=O)C12CCC(CCCCC)(CC1)CC2 [Compound 2j, (4-Pentylbicyclo[2.2.2]octan-1-yl)methyl-d2 ((S)-4-methyl-1-oxo-1-(((S)-1-oxo-3-((S)-2-oxopyrrolidin-3-yl)propan-2-yl)amino)pentan-2-yl)carbamate] | 20000 ± 3000 | 310 ± 30 | – | – | – | –
CC(C)C[C@H](NC(=O)OCC12CC3CC(CC(C3)C1)C2)C(=O)N[C@H](C=O)C[C@H]1CCNC1=O [Compound 2k, ((3S,5S,7S)-Adamantan-1-yl)methyl((S)-4-methyl-1-oxo-1-(((S)-1-oxo-3-((S)-2-oxopyrrolidin-3-yl)propan-2-yl)amino)pentan-2-yl)carbamate] | > 100000 | 180 ± 40 | 55 ± 2 | – | – | –
CC(C)C[C@H](NC(=O)OCCC12CC3CC(CC(C3)C1)C2)C(=O)N[C@H](C=O)C[C@H]1CCNC1=O [Compound 2m, 2-((3S,5S,7S)-Adamantan-1-yl)ethyl ((S)-4-methyl-1-oxo-1-(((S)-1-oxo-3-((S)-2-oxopyrrolidin-3-yl)propan-2-yl)amino)pentan-2-yl)carbamate] | > 100000 | 270 ± 20 | – | – | – | –
CC(C)C[C@H](NC(=O)OC[C@@]12C[C@@H]3C[C@@H](C[C@@](O)(C3)C1)C2)C(=O)N[C@H](C=O)C[C@@H]1CCNC1=O [Compound 2n, ((1r,3R,5R,7S)-3-Hydroxyadamantan-1-yl)methyl ((S)-4-methyl-1-oxo-1-(((S)-1-oxo-3-((S)-2-oxopyrrolidin-3-yl)propan-2-yl)amino)pentan-2-yl)carbamate] | > 100000 | 820 ± 190 | – | ~5 | – | –
[2H]C([2H])(OC(=O)N[C@@H](CC(C)C)C(=O)N[C@@H](C[C@@H]1CCNC1=O)C(O)S(=O)(=O)[O-])[C@@H]1C[C@@H]2C=CC[C@@H](C2)C1.[Na+] (stereo partly drawn) [Compound 3d, Sodium (2S)-2-((S)-2-(((((1S,3S,5R)-bicyclo[3.3.1]non-6-en-3-yl)methoxy-d2)carbonyl)amino)-4-methylpentanamido)-1-hydroxy-3-((S)-2-oxopyrrolidin-3-yl)propane-1-sulfonate] | > 100000 | 300 ± 30 | – | – | – | –
CC(C)C[C@H](NC(=O)OCC1CC2C=CC1C2)C(=O)N[C@@H](C[C@@H]1CCNC1=O)C(O)S(=O)(=O)O (stereo partly drawn) [Compound 3e, Sodium (2S)-2-((2S)-2-(((bicyclo[2.2.1]hept-5-en-2-ylmethoxy)carbonyl)amino)-4-methylpentanamido)-1-hydroxy-3-((S)-2-oxopyrrolidin-3-yl)propane-1-sulfonate] | > 100000 | 280 ± 30 | – | – | – | –
CC(C)C[C@H](NC(=O)OCC1CC2CCC1C2)C(=O)N[C@@H](C[C@@H]1CCNC1=O)C(O)S(=O)(=O)O (stereo partly drawn) [Compound 3f, Sodium (2S)-2-((2S)-2-(((bicyclo[2.2.1]heptan-2-ylmethoxy)carbonyl)amino)-4-methylpentanamido)-1-hydroxy-3-((S)-2-oxopyrrolidin-3-yl)propane-1-sulfonate] | > 100000 | 100 ± 10 | 58 ± 2 | – | – | –
CC(C)C[C@H](NC(=O)OC1CC2CCC(C1)N2C(=O)OC(C)(C)C)C(=O)N[C@@H](C[C@H]1CCNC1=O)C(O)S(=O)(=O)O (stereo partly drawn) [Compound 3g, Sodium (2S)-2-((S)-2-(((((1R,3s,5S)-8-(tert-butoxycarbonyl)-8-azabicyclo[3.2.1]octan-3-yl)oxy)carbonyl)amino)-4-methylpentanamido)-1-hydroxy-3-((S)-2-oxopyrrolidin-3-yl)propane-1-sulfonate] | > 100000 | 1710 ± 160 | – | – | – | –
CC(C)C[C@H](NC(=O)OC1CC2CCC(C1)N2C(=O)OCc1ccccc1)C(=O)N[C@@H](C[C@H]1CCNC1=O)C(O)S(=O)(=O)O (stereo partly drawn) [Compound 3h, Sodium (2S)-2-((S)-2-(((((1R,3s,5S)-8-((benzyloxy)carbonyl)-8-azabicyclo[3.2.1]octan-3-yl)oxy)carbonyl)amino)-4-methylpentanamido)-1-hydroxy-3-((S)-2-oxopyrrolidin-3-yl)propane-1-sulfonate] | > 100000 | 370 ± 30 | – | – | – | –
CC(C)C[C@H](NC(=O)OCC12CC3CC(CC(C3)C1)C2)C(=O)N[C@@H](C[C@H]1CCNC1=O)C(O)S(=O)(=O)O (stereo partly drawn) [Compound 3k, Sodium (2S)-2-((S)-2-(((((3S,5S,7S)-adamantan-1-yl)methoxy)carbonyl)amino)-4-methylpentanamido)-1-hydroxy-3-((S)-2-oxopyrrolidin-3-yl)propane-1-sulfonate] | > 100000 | 150 ± 40 | 53 ± 3 | – | – | –
CC(C)C[C@H](NC(=O)OCCC12CC3CC(CC(C3)C1)C2)C(=O)N[C@@H](C[C@H]1CCNC1=O)C(O)S(=O)(=O)O (stereo partly drawn) [Compound 3m, Sodium (2S)-2-((S)-2-(((2-((3S,5S,7S)-adamantan-1-yl)ethoxy)carbonyl)amino)-4-methylpentanamido)-1-hydroxy-3-((S)-2-oxopyrrolidin-3-yl)propane-1-sulfonate] | > 100000 | 250 ± 40 | – | – | – | –
CC(C)C[C@H](NC(=O)OCC12CC3CC(CC(O)(C3)C1)C2)C(=O)N[C@@H](C[C@H]1CCNC1=O)C(O)S(=O)(=O)[O-].[Na+] (stereo partly drawn) [Compound 3n, Sodium (2S)-1-hydroxy-2-((S)-2-(((((1r,3R,5R,7S)-3-hydroxyadamantan-1-yl)methoxy)carbonyl)amino)-4-methylpentanamido)-3-((S)-2-oxopyrrolidin-3-yl)propane-1-sulfonate] | > 100000 | 1030 ± 240 | – | ~5 | – | –
CC(C)C[C@H](NC(=O)OC1CC2(CCN(C(=O)OC(C)(C)C)CC2)C1)C(=O)N[C@@H](C[C@H]1CCNC1=O)C(O)S(=O)(=O)O (stereo partly drawn) [Compound 7c, Sodium (2S)-2-((S)-2-((((7-(tert-butoxycarbonyl)-7-azaspiro[3.5]nonan-2-yl)oxy)carbonyl)amino)-4-methylpentanamido)-1-hydroxy-3-((R)-2-oxopyrrolidin-3-yl)propane-1-sulfonate] | – | – | – | – | 80 | > 100000
CC(C)C[C@H](NC(=O)OCC1CN(C(=O)OC(C)(C)C)C1)C(=O)N[C@H](C=O)C[C@H]1CCNC1=O [Compound 14b, Tert-butyl 3-(((((S)-4-methyl-1-oxo-1-(((S)-1-oxo-3-((R)-2-oxopyrrolidin-3-yl)propan-2-yl)amino)pentan-2-yl)carbamoyl)oxy)methyl)azetidine-1-carboxylate] | – | – | – | – | 380 | > 100000
CC(C)C[C@H](NC(=O)OCC1CN(C(=O)C2CC3CCC2C3)C1)C(=O)N[C@@H](C[C@H]1CCNC1=O)C(O)S(=O)(=O)O (stereo partly drawn) [Compound 16c, Sodium (2S)-2-((2S)-2-((((1-(bicyclo[2.2.1]heptane-2-carbonyl)azetidin-3-yl)methoxy)carbonyl)amino)-4-methylpentanamido)-1-hydroxy-3-((R)-2-oxopyrrolidin-3-yl)propane-1-sulfonate] | – | – | – | – | – | > 100000
CC(C)C[C@H](NC(=O)OCC1CN(S(C)(=O)=O)C1)C(=O)N[C@H](C=O)C[C@H]1CCNC1=O [Compound 17b, (1-(Methylsulfonyl)azetidin-3-yl)methyl ((S)-4-methyl-1-oxo-1-(((S)-1-oxo-3-((R)-2-oxopyrrolidin-3-yl)propan-2-yl)amino)pentan-2-yl)carbamate] | – | – | – | – | – | > 100000
CC(C)C[C@H](NC(=O)OCC1CN(S(C)(=O)=O)C1)C(=O)N[C@@H](C[C@H]1CCNC1=O)C(O)S(=O)(=O)O (stereo partly drawn) [Compound 17c, Sodium (2S)-1-hydroxy-2-((S)-4-methyl-2-((((1-(methylsulfonyl)azetidin-3-yl)methoxy)carbonyl)amino)pentanamido)-3-((R)-2-oxopyrrolidin-3-yl)propane-1-sulfonate] | – | – | – | – | – | > 100000

From patent publication US20240307419A1, “CONFORMATIONALLY-CONSTRAINED INHIBITORS OF 3C OR 3C-LIKE PROTEASES” (priority 2021, published 2024)
